From patent publication US12076436B2, “Bacterial ferment of Lactobacillus species” (Symrise AG, priority 2021, dated 2024)

Experiments:
[1] = test system: MatTek EpiDerm 3D reconstituted skin models; experiment: MTT viability of the 3D skin models; assay type: cell-based, human; details: MTT assay at end of experiment; dexamethasone at 50 μM
Method: (§1) To assess the effect of the bacterial ferment according to the invention on the secretion levels of IL8, reconstituted 3D skin models (EpiDerm™, MatTek) were used. After a short acclimation phase (daily medium changes), the models were switched to hydrocortisone-free medium, and test compounds were added topically to the reconstituted models. 50 μM dexamethasone was used as positive control, PBS served as negative control in the experiment. After 72 h incubation at 37° C. 5% CO2, the 3D models were washed with PBS and subsequently, an inflammatory response was stimulated by addition of 1 μg/ml Ma in the medium for approx. 24 h. Supernatants were collected after this phase and the IL8 concentration in these supernatants was determined using an ELISA kit (Human […] DuoSet ELISA, R&D Systems). To assess potential toxic effects of the test compounds on the 3D models, a standard MTT assay was carried out to assess viability of the 3D models at the end of the experiment.

Interleukin-8 (IL8) = experiment: IL8 secretion by EpiDerm 3D reconstituted skin models after IL1a stimulation (ELISA); assay type: cell-based, human; details: supernatants; 72 h topical treatment, then 1 μg/ml IL1a approx. 24 h; triplicates; dexamethasone at 50 μM
Method: as §1

Lactobacillus cultures = experiment: Reduction of Lactobacillus viability by treatment with lactic acid (plating of serial dilutions); assay type: cell-based

Row | Compound | Viability (% vs stimulated control) [1] [% vs stimulated control] | IL-8 concentration [pg/ml] ± SEM (Interleukin-8 (IL8)) [pg/mL] | Lactobacillus count (log cfu/ml) (Lactobacillus cultures; 2 % (w/v) lactic acid, 37° C., 12 h) | Lactobacillus count (log cfu/ml) (Lactobacillus cultures; 2.8 % (w/v) lactic acid, 37° C., 12 h) | Lactobacillus count (log cfu/ml) (Lactobacillus cultures; 3 % (w/v) lactic acid, 37° C., 12 h) | Lactobacillus count (log cfu/ml) (Lactobacillus cultures; 3.4 % (w/v) lactic acid, 37° C., 12 h) | Lactobacillus count (log cfu/ml) (Lactobacillus cultures; 3.6 % (w/v) lactic acid, 37° C., 12 h) | Lactobacillus count (log cfu/ml) (Lactobacillus cultures; 4 % (w/v) lactic acid, 37° C., 12 h) | Lactobacillus count (log cfu/ml) (Lactobacillus cultures; 4.4 % (w/v) lactic acid, 37° C., 12 h) | Lactobacillus count (log cfu/ml) (Lactobacillus cultures; 4.8 % (w/v) lactic acid, 37° C., 12 h) | Lactobacillus count (log cfu/ml) (Lactobacillus cultures; 5 % (w/v) lactic acid, 37° C., 12 h) | Lactobacillus count (log cfu/ml) (Lactobacillus cultures; 5.4 % (w/v) lactic acid, 37° C., 12 h) | Lactobacillus count (log cfu/ml) (Lactobacillus cultures; 6 % (w/v) lactic acid, 37° C., 12 h) | Lactobacillus count (log cfu/ml) (Lactobacillus cultures; 6.8 % (w/v) lactic acid, 37° C., 12 h) | lactic acid concentration range of optimal reduction of Lactobacillus count (Lactobacillus cultures; 37° C., 12 h) | reduction in bacterial count by short pH shock with lactic acid (Lactobacillus cultures; step c of the method, bacterial ferment supernatant)
1 | C[C@@H]1C[C@H]2[C@@H]3CCC4=CC(=O)C=C[C@]4(C)[C@@]3(F)[C@@H](O)C[C@]2(C)[C@@]1(O)C(=O)CO [Dexamethasone, dexamethasone] | 90 | 1225 ± 18.61 |  |  |  |  |  |  |  |  |  |  |  |  |  | 
2 | CC(O)C(=O)O (stereo not shown) [Lactic Acid, lactic acid] |  |  | 7.54 | 7.08 | 5.45 | 4.72 | 5.09 | 3.52 | 3.60 | 3.00 | 1.00 | 1.38 | 1.95 | 1.70 | ca. 5 % (w/v) | at least 9 order
